Patent US20080125432A1 (Devgen NV, priority 2004, published 2008)

Target: T1, human Kv4.3 (Homo sapiens, UniProt Q9UK17)
T1 construct: expressed in transfected cells; host or cells: transgenic C. elegans strain UG1755 (N2 injected with plasmid pGV8, integrated array)
T1 sequence (Q9UK17 1-655): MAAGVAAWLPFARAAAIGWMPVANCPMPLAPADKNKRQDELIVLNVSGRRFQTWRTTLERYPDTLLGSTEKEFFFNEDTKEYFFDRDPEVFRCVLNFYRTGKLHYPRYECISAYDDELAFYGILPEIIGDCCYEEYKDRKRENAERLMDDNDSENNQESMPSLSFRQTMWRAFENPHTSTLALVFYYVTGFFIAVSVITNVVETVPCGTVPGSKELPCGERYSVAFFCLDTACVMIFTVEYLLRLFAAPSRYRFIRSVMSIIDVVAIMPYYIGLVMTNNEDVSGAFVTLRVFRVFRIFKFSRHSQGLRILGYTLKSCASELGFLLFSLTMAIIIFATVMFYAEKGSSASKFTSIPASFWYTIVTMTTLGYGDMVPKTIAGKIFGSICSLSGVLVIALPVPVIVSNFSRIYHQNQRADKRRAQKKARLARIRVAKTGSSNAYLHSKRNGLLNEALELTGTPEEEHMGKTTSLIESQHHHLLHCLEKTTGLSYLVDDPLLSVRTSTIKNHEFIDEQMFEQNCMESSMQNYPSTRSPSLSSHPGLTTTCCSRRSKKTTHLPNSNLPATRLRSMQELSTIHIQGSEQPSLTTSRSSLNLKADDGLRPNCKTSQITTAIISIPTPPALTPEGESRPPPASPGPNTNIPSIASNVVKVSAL
Assay: C. elegans based high-throughput screen for Kv4.3 modulators (pharynx pumping, Calcein AM uptake), transgenic strain UG1755
Assay type: in vivo
Conditions: for Ratio N2/Kv4.3: EC50 on N2 divided by EC50 on the Kv4.3 expressing strain, cut-off 1.8; for EC50: transgenic strain UG1755 expressing human Kv4.3, read-out: EC50 (μM) Kv4.3 worm
Excerpt: A C. elegans based high-throughput screen for Kv4.3 modulators has been used to establish an in vivo SAR (structure-activity relationships: the effect of chemical structure on biological activity) on Kv4.3 for the compounds according to the present invention.
This assay has employed a stable transgenic C. elegans strain that functionally expressed human Kv4.3 in the pharynx and a visible selection GFP maker in body-wall muscle.
The pharynx is the feeding organ of C. elegans and contracts rhythmically 3-4 times per second. The pharynx contraction is controlled by the nervous system via action potentials similar to the human myocyte and can thus be used to study human ion channel physiology in vivo in C. elegans.
Introducing the human Kv4.3 channel into the C. elegans pharynx influences the C. elegans action potential in a characteristic fashion. The additional number of potassium channels increases potassium ion efflux, enhances re-polarization and thereby shortens the action potential duration. […] The shortened action potentials of the C. elegans pharynx resulting from expression of human Kv4.3, changes the pharynx contraction-relaxation cycle and consequently reduces the pumping/feeding in these transgenic animals. This change of pumping is an end-point amenable to high-throughput screening technology. The pumping end-point can be technically translated into a high-throughput read-out by the use of a pro-fluorescent dye. The pro-fluorescent dye is taken up by C. elegans depending on its pumping activity and converted into a fluorescent dye by enzymes located in its intestines. After a defined incubation period, the change of fluorescence intensity in the intestine can be measured with a plate reader.
The screening of the compounds according to the present invention has been performed in the C. elegans based high-throughput screen for Kv4.3 modulators described above. The method for testing the activity on human Kv4.3 of the compounds according to the invention with C. elegans strains expressing human Kv4.3 for their activity is the same as the method described in WO 03/097682. The method for testing the compounds on wild-type C. elegans strains not expressing human Kv4.3 is the same as the method described in WO 00/63427. Briefly, UG1755 animals have been grown in large numbers and staged young adults (no or only few eggs inside the uterus) have been harvested on the day of screening. Approximately 125 animals in 80 μl buffer have been dispensed per well of a “U shaped 96-well compound plate The compound plate contained already compound material at a final concentration of 30 μM in 0.3% DMSO. After one hour incubation 10 μl of the fluorescent label Calcein AM (CAM) have been added to achieve a final concentration of 5 μM CAM and 0.8% DMSO. After another four hours of incubation at 20° C., the drinking of C. elegans animals (or the “reaction 8 measured by the uptake of CAM) has been stopped by adding 10 μl of a 60 μM ivermectin solution. The fluorescence intensity (counts per second) has been measured 40 minutes after adding ivermectin with the Wallac plate reader at a wavelength of 535 nm (after excitation at 485 nm).
The active compounds have been identified and confirmed by dose-response analysis. An EC50 has been calculated and the results are listed under Table 3. Dose-response curves have been obtained at concentrations of 30 μM. EC50 has been calculated using XLfit 2.09 software package.

Row | Ratio N2/Kv4.3 | EC50 [µM] | SMILES
1 | >1.8 | 32.1 | Cc1nc(Nc2ccc(F)cc2)sc1C(=O)N[C@H](C)c1ccc2ccccc2c1 [Compound 16, 2-(4-fluoro-phenylamino)-4-methyl-thiazole-5-carboxylic acid (R)-1-(naphthalen-2-yl)ethyl amide]
2 | 2.4 | 13.5 | Cc1nc(Nc2ccc(Br)cc2)sc1C(=O)N[C@@H](C)c1ccc2ccccc2c1 [Compound 18, 2-(4-bromo-phenylamino)-4-methyl-thiazole-5-carboxylic acid (S)-1-(naphthalen-2-yl)ethyl amide]
3 | 4.7 | 7 | Cc1nc(Nc2ccc(Br)cc2)sc1C(=O)N[C@H](C)c1ccc2ccccc2c1 [Compound 19, 2-(4-bromo-phenylamino)-4-methyl-thiazole-5-carboxylic acid (R)-1-(naphthalen-2-yl)ethyl amide]
4 | >6.4 | 9 | Cc1nc(Nc2ccc(Cl)cc2)sc1C(=O)N[C@@H]1CCC[C@H]1OCc1ccccc1 [Compound 30, 2-(4-chloro-phenylamino)-4-methyl-thiazole-5-carboxylic acid (1R,2R)-2-(benzyloxycyclopent-1-yl) amide]
